“And” between values parts separate entries of the source, which are not always exact repeats. Equal entries are not always repeated. Where two headings read alike, the source gives them in different places.
Assays:
Type in all cases: cell-based, human
SPAK pSer373 [1] = assay: Immunoblot of SPAK/OSR1 p-Ser373/Ser325 in HEK-293 cells
Method: (§1) Band intensities were quantitated with ImageJ software. ***p < 0.001; **p < 0.01; *p < 0.05; ns, nonsignificant [by one-way ANOVA with post hoc testing (n = 6, error bars represent the mean ± SEM)].
(§2) Thirty-six hours post transfection, cells were stimulated with either control isotonic or hypotonic medium for a period of 30 min. […] Protein concentrations were determined using the Bradford method. Cells were treated with the indicated concentrations of the SPAK/OSR1 inhibitors.

NKCC1 pThr203/207/212 [2] = assay: Immunoblot of NKCC1 p-Thr203/Thr207/Thr212 in HEK-293 cells
Method: as §1, §2

KCC3 pThr991 = assay: Immunoblot of KCC site 1 phosphorylation (KCC3 Thr991) in HEK-293 cells transfected with FLAG-KCC3; details: for IC50: read-out: KCC3 pThr991 (μM), 50% inhibition, HEK-293, n = 3
KCC3 pThr1048 [3] = assay: Immunoblot of KCC site 2 phosphorylation (KCC3 Thr1048) in HEK-293 cells transfected with FLAG-KCC3
SPAK pSer373 [4] = assay: Immunoblot of SPAK/OSR1 p-Ser373/Ser325 in HEK-293 cells; details: read-out: SPAK pSer373 (μM), 50% inhibition, HEK-293, n = 3
NKCC1 pThr203/207/212 [5] = assay: Immunoblot of NKCC1 p-Thr203/Thr207/Thr212 in HEK-293 cells; details: read-out: NKCC1 pThr203 (μM), 50% inhibition, HEK-293, n = 3
KCC3 pThr1048 [6] = assay: Immunoblot of KCC site 2 phosphorylation (KCC3 Thr1048) in HEK-293 cells transfected with FLAG-KCC3; details: read-out: KCC3 pThr1048 (μM), 50% inhibition, HEK-293, n = 3
[7] = Hypotonic low Cl, compound concentration 1 (unit not given)
[8] = Hypotonic low Cl, compound concentration 3 (unit not given)
[9] = Hypotonic low Cl, compound concentration 10 (unit not given)
[10] = Isotonic control, compound concentration 1 (unit not given)
[11] = Isotonic control, compound concentration 3 (unit not given)
[12] = Isotonic control, compound concentration 10 (unit not given)

Cc1cc(C(C#N)c2ccc(Cl)cc2)c(Cl)cc1NC(=O)c1cc(Cl)cc(Cl)c1O (centres unmarked) [ZT-1f]
pSer373 / SPAK (SPAK pSer373 [1]; [7]): 0.49 and 0.51 and 0.58 and 0.552
pSer373 / SPAK (SPAK pSer373 [1]; [8]): 0.255 and 0.215 and 0.1963 and 0.207
pSer373 / SPAK (SPAK pSer373 [1]; [9]): 0.059 and 0.041 and 0.05 and 0.046
pSer373 / SPAK (SPAK pSer373 [1]; [10]): 0.221 and 0.274 and 0.241 and 0.291
pSer373 / SPAK (SPAK pSer373 [1]; [11]): 0.101 and 0.09 and 0.083 and 0.121
pSer373 / SPAK (SPAK pSer373 [1]; [12]): 0.031 and 0.026 and 0.028
pThrNKCC1 / NKCC1 (NKCC1 pThr203/207/212 [2]; [7]): 0.511 and 0.43 and 0.48 and 0.55
pThrNKCC1 / NKCC1 (NKCC1 pThr203/207/212 [2]; [8]): 0.144 and 0.139 and 0.1273 and 0.131
pThrNKCC1 / NKCC1 (NKCC1 pThr203/207/212 [2]; [9]): 0.029 and 0.031 and 0.039 and 0.026
pThrNKCC1 / NKCC1 (NKCC1 pThr203/207/212 [2]; [10]): 0.187 and 0.123 and 0.15 and 0.173
pThrNKCC1 / NKCC1 (NKCC1 pThr203/207/212 [2]; [12]): 0.009 and 0.011 and 0.016 and 0.012
Site-1 phospho / KCC (KCC3 pThr991; [7]): 0.591 and 0.61 and 0.578 and 0.662
Site-1 phospho / KCC (KCC3 pThr991; [8]): 0.501 and 0.522 and 0.538 and 0.551
Site-1 phospho / KCC (KCC3 pThr991; [9]): 0.304 and 0.287 and 0.249 and 0.4315
Site-1 phospho / KCC (KCC3 pThr991; [10]): 0.52 and 0.572 and 0.465 and 0.481
Site-1 phospho / KCC (KCC3 pThr991; [11]): 0.476 and 0.441 and 0.483 and 0.501
Site-1 phospho / KCC (KCC3 pThr991; [12]): 0.412 and 0.386 and 0.366 and 0.392
Site-2 phospho / KCC (KCC3 pThr1048 [3]; [7]): 0.535 and 0.483 and 0.512 and 0.467
Site-2 phospho / KCC (KCC3 pThr1048 [3]; [8]): 0.341 and 0.264 and 0.311 and 0.293
Site-2 phospho / KCC (KCC3 pThr1048 [3]; [9]): 0.109 and 0.131 and 0.09 and 0.115
Site-2 phospho / KCC (KCC3 pThr1048 [3]; [10]): 0.486 and 0.369 and 0.411 and 0.451
Site-2 phospho / KCC (KCC3 pThr1048 [3]; [11]): 0.191 and 0.175 and 0.185 and 0.163
Site-2 phospho / KCC (KCC3 pThr1048 [3]; [12]): 0.073 and 0.097 and 0.081 and 0.092

COc1ccc(Cl)cc1C(=O)Nc1cc(Cl)c(C(C#N)c2ccc(Cl)cc2)cc1C (centres unmarked) [Compound 1j]
IC50 (KCC3 pThr991; Iso (isotonic)): > 10 µM
IC50 (KCC3 pThr991; hypo (hypotonic)): > 10 µM
IC50 (SPAK pSer373 [4]; Iso (isotonic)): > 10 µM
IC50 (SPAK pSer373 [4]; hypo (hypotonic)): > 10 µM
IC50 (NKCC1 pThr203/207/212 [5]; Iso (isotonic)): > 10 µM
IC50 (NKCC1 pThr203/207/212 [5]; hypo (hypotonic)): > 10 µM
IC50 (KCC3 pThr1048 [6]; Iso (isotonic)): > 10 µM
IC50 (KCC3 pThr1048 [6]; hypo (hypotonic)): > 10 µM

Cc1cc(C(C#N)c2ccc(Cl)cc2)c(Cl)cc1NC(=O)c1ccccc1S (centres unmarked) [ZT-1c]
pSer373 / SPAK (SPAK pSer373 [1]; [7]): 0.203 and 0.196 and 0.2213 and 0.215
pSer373 / SPAK (SPAK pSer373 [1]; [8]): 0.112 and 0.125 and 0.103 and 0.117
pSer373 / SPAK (SPAK pSer373 [1]; [9]): 0.032 and 0.051 and 0.046 and 0.039
pSer373 / SPAK (SPAK pSer373 [1]; [10]): 0.122 and 0.112 and 0.129 and 0.116
pSer373 / SPAK (SPAK pSer373 [1]; [11]): 0.075 and 0.062 and 0.048 and 0.057
pSer373 / SPAK (SPAK pSer373 [1]; [12]): 0.036 and 0.024 and 0.031 and 0.029
pThrNKCC1 / NKCC1 (NKCC1 pThr203/207/212 [2]; [7]): 1.123 and 1.265 and 1.316 and 1.19
pThrNKCC1 / NKCC1 (NKCC1 pThr203/207/212 [2]; [8]): 0.587 and 0.521 and 0.402 and 0.467
pThrNKCC1 / NKCC1 (NKCC1 pThr203/207/212 [2]; [9]): 0.215 and 0.209 and 0.187 and 0.193
pThrNKCC1 / NKCC1 (NKCC1 pThr203/207/212 [2]; [10]): 0.43 and 0.561 and 0.501 and 0.592
pThrNKCC1 / NKCC1 (NKCC1 pThr203/207/212 [2]; [12]): 0.05 and 0.036 and 0.066 and 0.049
Site-1 phospho / KCC (KCC3 pThr991; [7]): 1.35 and 1.471 and 1.65 and 1.51
Site-1 phospho / KCC (KCC3 pThr991; [8]): 1.55 and 1.21 and 1.48 and 1.3
Site-1 phospho / KCC (KCC3 pThr991; [9]): 1.012 and 0.998 and 0.867 and 0.921
Site-1 phospho / KCC (KCC3 pThr991; [10]): 1.231 and 1.321 and 1.543 and 1.43
Site-1 phospho / KCC (KCC3 pThr991; [11]): 1.091 and 0.991 and 0.86 and 0.91
Site-1 phospho / KCC (KCC3 pThr991; [12]): 0.761 and 0.69 and 0.81 and 0.61
Site-2 phospho / KCC (KCC3 pThr1048 [3]; [7]): 0.497 and 0.455 and 0.548 and 0.508
Site-2 phospho / KCC (KCC3 pThr1048 [3]; [8]): 0.209 and 0.276 and 0.192 and 0.234
Site-2 phospho / KCC (KCC3 pThr1048 [3]; [9]): 0.048 and 0.058 and 0.04 and 0.032
Site-2 phospho / KCC (KCC3 pThr1048 [3]; [10]): 0.476 and 0.401 and 0.516 and 0.551
Site-2 phospho / KCC (KCC3 pThr1048 [3]; [11]): 0.214 and 0.265 and 0.187 and 0.198
Site-2 phospho / KCC (KCC3 pThr1048 [3]; [12]): 0.065 and 0.051 and 0.044 and 0.058

Cc1cc(C(C#N)c2ccc(Cl)cc2)c(Cl)cc1NC(=O)c1ccccc1[N+](=O)[O-] (centres unmarked) [Compound 1e]
IC50 (KCC3 pThr991; Iso (isotonic)): > 10 µM
IC50 (KCC3 pThr991; hypo (hypotonic)): > 10 µM
IC50 (SPAK pSer373 [4]; Iso (isotonic)): > 10 µM
IC50 (SPAK pSer373 [4]; hypo (hypotonic)): > 10 µM
IC50 (NKCC1 pThr203/207/212 [5]; Iso (isotonic)): > 10 µM
IC50 (NKCC1 pThr203/207/212 [5]; hypo (hypotonic)): > 10 µM
IC50 (KCC3 pThr1048 [6]; Iso (isotonic)): > 10 µM
IC50 (KCC3 pThr1048 [6]; hypo (hypotonic)): > 10 µM
